Results as given in US9695155B2, “Herbicidal substituted pyrimidinyloxy benzene compounds” (E. I. DU PONT DE NEMOURS AND COMPANY, priority 2013, dated 2017).

Legend:
giant foxtail = assay: Test A preemergence; type: in vivo, Setaria faberii
Summary of the method: (§1)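 Greenhouse pot test, loam/sand soil. Formulation: non-phytotoxic solvent mix plus surfactant. Pre: directed spray onto soil after sowing. Post: plants at 1–2 leaf, 2–10 cm. Rated visually vs untreated controls at ~10 d, 0 (no effect) to 100 (complete control).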

pigweed = assay: Test A preemergence; type: in vivo, Amaranthus retroflexus
Summary of the method: as §1

velvetleaf = assay: Test A postemergence; type: in vivo, Abutilon theophrasti
Summary of the method: as §1

rice = assay: Test B flooded paddy test; type: in vivo, Oryza sativa; details: Flood, 250 g ai/ha; 0 to 100 scale where 0 is no effect and 100 is complete control
Summary of the method: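 Compound added straight to paddy water, with pots kept flooded 3 cm above soil, on plants grown to the 2-leaf stage. Visual scoring 0-100 (100 = complete control) against untreated controls after 13 to 15 greenhouse days.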

Italian ryegrass = assay: Test C postemergence; type: in vivo, Lolium multiflorum
Summary of the method: (§2)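 Visual ratings on a 0–100 scale (100 = complete control) were made versus untreated controls after 13–15 greenhouse days. Chemicals in a surfactant-containing non-phytotoxic solvent were applied either preemergence to seeds in loam–sand soil or postemergence to 1- to 4-leaf plants 2–18 cm tall.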

wheat, winter = assay: Test C postemergence; type: in vivo, Triticum aestivum
Summary of the method: as §2

galium = assay: Test C postemergence; type: in vivo, Galium aparine
Summary of the method: as §2

corn = assay: Test C postemergence; type: in vivo, Zea mays
Summary of the method: as §2

yellow nutsedge = assay: Test C postemergence; type: in vivo, Cyperus esculentus
Summary of the method: as §2

barnyardgrass = assay: Test C postemergence; type: in vivo, Echinochloa crus-galli
Summary of the method: as §2

kochia = assay: Test C postemergence; type: in vivo, Kochia scoparia
Summary of the method: as §2

[1] = 125 g ai/ha, 0 to 100 scale where 0 is no effect and 100 is complete control
[2] = 500 g ai/ha, 0 to 100 scale, 0 no effect, 100 complete control, approx. 10 days
[3] = 500 g ai/ha, 0 to 100 scale where 0 is no effect and 100 is complete control
[4] = Postemergence, 31 g ai/ha, scale 0 to 100 (0 no effect, 100 complete control), 13 to 15 days
[5] = Postemergence, 62 g ai/ha, scale 0 to 100 (0 no effect, 100 complete control)
[6] = 1000 g ai/ha, 0 to 100 scale, 0 no effect, 100 complete control, approx. 10 days
[7] = 8 g ai/ha, postemergence, 0 is no effect, 100 is complete control
[8] = 16 g ai/ha, postemergence, 0 is no effect, 100 is complete control
[9] = 4 g ai/ha, postemergence, 0 is no effect, 100 is complete control
[10] = 31 g ai/ha, postemergence, visual rating, scale 0 to 100 (0 no effect, 100 complete control), 13 to 15 days
[11] = 125 g ai/ha, postemergence, visual rating, scale 0 to 100 (0 no effect, 100 complete control)
[12] = Postemergence, 62 g ai/ha, scale 0 to 100 (0 no effect, 100 complete control), 13 to 15 days

Structure (SMILES): N#Cc1cccc(Oc2ncc(Cl)cn2)c1-n1cnc(Br)c1 [Compound 74]
- Plant response rating, Foxtail, Giant (giant foxtail; [1]): 90
- Foxtail, Giant plant response rating (giant foxtail; [2]): 100
- Plant response rating, Pigweed (pigweed; [1]): 100
- Pigweed plant response rating (pigweed; [2]): 100
- Plant response rating, Velvetleaf (velvetleaf; [1]): 90
- Plant response rating, Velvetleaf (velvetleaf; [3]): 100
- Plant response rating, Rice (rice): 0
- Plant response rating (0 to 100), Ryegrass, Italian (Italian ryegrass; 125 g ai/ha, postemergence): 0
- Plant response rating (0 to 100), Ryegrass, Italian (Italian ryegrass; 250 g ai/ha, postemergence): 5
- Plant response rating, Ryegrass, Italian (Italian ryegrass; [4]): 0
- Plant response rating, Ryegrass, Italian (Italian ryegrass; [5]): 0
- Plant response rating (0 to 100), Wheat (wheat, winter; 125 g ai/ha, postemergence): 0
- Plant response rating (0 to 100), Wheat (wheat, winter; 250 g ai/ha, postemergence): 5
- Plant response rating, Wheat (wheat, winter; [4]): 0
- Plant response rating, Wheat (wheat, winter; [5]): 0
- Plant response rating (0 to 100), Galium (galium; 125 g ai/ha, postemergence): 65
- Plant response rating (0 to 100), Galium (galium; 250 g ai/ha, postemergence): 65
- Plant response rating, Galium (galium; [4]): 40
- Plant response rating, Galium (galium; [5]): 55
- Plant response rating (0 to 100), Corn (corn; 125 g ai/ha, postemergence): 15
- Plant response rating (0 to 100), Corn (corn; 250 g ai/ha, postemergence): 20
- Plant response rating, Corn (corn; [4]): 10
- Plant response rating, Corn (corn; [5]): 10
- Plant response rating (0 to 100), Nutsedge, Yellow (yellow nutsedge; 125 g ai/ha, postemergence): 0
- Plant response rating (0 to 100), Nutsedge, Yellow (yellow nutsedge; 250 g ai/ha, postemergence): 0
- Plant response rating, Nutsedge, Yellow (yellow nutsedge; [4]): 0
- Plant response rating, Nutsedge, Yellow (yellow nutsedge; [5]): 0
- Plant response rating (0 to 100), Barnyardgrass (barnyardgrass; 125 g ai/ha, postemergence): 5
- Plant response rating (0 to 100), Barnyardgrass (barnyardgrass; 250 g ai/ha, postemergence): 15
- Plant response rating, Barnyardgrass (barnyardgrass; [4]): 0
- Plant response rating, Barnyardgrass (barnyardgrass; [5]): 5
- Plant response rating (0 to 100), Kochia (kochia; 125 g ai/ha, postemergence): 90
- Plant response rating (0 to 100), Kochia (kochia; 250 g ai/ha, postemergence): 90
- Plant response rating, Kochia (kochia; [4]): 80
- Plant response rating, Kochia (kochia; [5]): 90

Structure (SMILES): CC(=NO)c1cn(-c2c(Br)cccc2Oc2ncc(Cl)cn2)nn1 [Compound 115]
- Foxtail, Giant plant response rating (giant foxtail; [6]): 100
- Pigweed plant response rating (pigweed; [6]): 100
- Plant response rating, Velvetleaf (velvetleaf; 1000 g ai/ha, 0 to 100 scale, 0 no effect, 100 complete control): 100
- Plant response rating, Rice (rice): 0
- Plant response rating (0 to 100), Ryegrass, Italian (Italian ryegrass; [7]): 0
- Plant response rating (0 to 100), Ryegrass, Italian (Italian ryegrass; [8]): 0
- Plant response rating (0 to 100), Wheat (wheat, winter; [7]): 0
- Plant response rating (0 to 100), Wheat (wheat, winter; [8]): 0
- Plant response rating (0 to 100), Galium (galium; [7]): 5
- Plant response rating (0 to 100), Galium (galium; [8]): 40
- Plant response rating (0 to 100), Corn (corn; [9]): 5
- Plant response rating (0 to 100), Corn (corn; [7]): 10
- Plant response rating (0 to 100), Corn (corn; [8]): 5
- Plant response rating (0 to 100), Nutsedge, Yellow (yellow nutsedge; [7]): 0
- Plant response rating (0 to 100), Nutsedge, Yellow (yellow nutsedge; [8]): 0
- Plant response rating (0 to 100), Barnyardgrass (barnyardgrass; [9]): 0
- Plant response rating (0 to 100), Barnyardgrass (barnyardgrass; [7]): 0
- Plant response rating (0 to 100), Barnyardgrass (barnyardgrass; [8]): 0
- Plant response rating, Barnyardgrass (barnyardgrass; [4]): 5
- Plant response rating (0 to 100), Kochia (kochia; [7]): 0
- Plant response rating (0 to 100), Kochia (kochia; [8]): 0

Structure (SMILES): N#Cc1cccc(Oc2ncc(Cl)cn2)c1-n1cc(-n2ccc(C(F)(F)F)n2)cn1 [Compound 284]
- Foxtail, Giant plant response rating (0 to 100 scale) (giant foxtail; 125 g ai/ha): 90
- Foxtail, Giant plant response rating (giant foxtail; [3]): 90
- Pigweed plant response rating (0 to 100 scale) (pigweed; 125 g ai/ha): 100
- Pigweed plant response rating (pigweed; [3]): 100
- Plant response rating, Rice (rice): 0
- Ryegrass, Italian plant response rating (Italian ryegrass; [10]): 5
- Plant response rating, Ryegrass, Italian (Italian ryegrass; [11]): 5
- Plant response rating (0 to 100), Ryegrass, Italian (Italian ryegrass; 250 g ai/ha, postemergence): 5
- Plant response rating, Ryegrass, Italian (Italian ryegrass; [12]): 5
- Wheat plant response rating (wheat, winter; [10]): 0
- Plant response rating, Wheat (wheat, winter; [11]): 5
- Plant response rating (0 to 100), Wheat (wheat, winter; 250 g ai/ha, postemergence): 5
- Plant response rating, Wheat (wheat, winter; [12]): 5
- Galium plant response rating (galium; [10]): 100
- Plant response rating, Galium (galium; [11]): 85
- Plant response rating (0 to 100), Galium (galium; 250 g ai/ha, postemergence): 100
- Plant response rating, Galium (galium; [12]): 85
- Corn plant response rating (corn; [10]): 5
- Plant response rating, Corn (corn; [11]): 20
- Plant response rating (0 to 100), Corn (corn; 250 g ai/ha, postemergence): 20
- Plant response rating, Corn (corn; [12]): 10
- Nutsedge, Yellow plant response rating (yellow nutsedge; [10]): 0
- Plant response rating, Nutsedge, Yellow (yellow nutsedge; [11]): 0
- Plant response rating (0 to 100), Nutsedge, Yellow (yellow nutsedge; 250 g ai/ha, postemergence): 5
- Plant response rating, Nutsedge, Yellow (yellow nutsedge; [12]): 0
- Barnyardgrass plant response rating (barnyardgrass; [10]): 10
- Plant response rating, Barnyardgrass (barnyardgrass; [11]): 15
- Plant response rating (0 to 100), Barnyardgrass (barnyardgrass; 250 g ai/ha, postemergence): 15
- Plant response rating, Barnyardgrass (barnyardgrass; [12]): 10
- Kochia plant response rating (kochia; [10]): 100
- Plant response rating, Kochia (kochia; [11]): 100
- Plant response rating (0 to 100), Kochia (kochia; 250 g ai/ha, postemergence): 100
- Plant response rating, Kochia (kochia; [12]): 100
